The assay has as its target T1, Human Factor D (Homo sapiens, UniProt P00746).
T1 construct: purified from human serum; purchased Complement Technology, Inc; host or cells: human serum (natural protein, not recombinant)
Put plainly: Human Factor D Assay. Type of assay: biochemical. The note with it: Table 3; Human Factor D 80 nM, substrate Z-L-Lys-SBzl; read-out: (IC50 (Stars)). Put shortly: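 Serum-purified factor D (80 nM final) preincubated 5 min at room temperature with compound in 50 mM Tris, 1 M NaCl, pH 7.5. Reaction started with 100 μM Z-L-Lys-SBzl plus 100 μM DTNB; A405 read every 30 s for 30 min; IC50 by nonlinear regression of rates.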

Bounds are passed on as bounds.

T1 sequence (P00746 26-253): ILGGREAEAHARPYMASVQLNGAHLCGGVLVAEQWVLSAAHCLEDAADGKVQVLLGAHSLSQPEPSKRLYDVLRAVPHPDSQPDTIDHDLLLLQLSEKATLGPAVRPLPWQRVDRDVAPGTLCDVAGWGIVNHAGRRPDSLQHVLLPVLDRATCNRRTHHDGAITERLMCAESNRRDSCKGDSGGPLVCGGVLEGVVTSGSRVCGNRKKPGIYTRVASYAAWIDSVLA

With `CC(=O)c1nn(CC(=O)N2[C@@H]3C[C@@H]3C[C@H]2C(=O)Nc2cncc(Br)n2)c2ccc(Oc3ncc(C)cn3)cc12` [Compound 170, (1R,3S,5R)-2-(2-(3-Acetyl-5-((5-methylpyrimidin-2-yl)oxy)-1H-indazol-1-yl)acetyl)-N-(6-bromopyrazin-2-yl)-2-azabicyclo[3.1.0]hexane-3-carboxamide], the IC50 is less than 1000 nM.
As for `CC(=O)c1nn(CC(=O)N2[C@@H]3C[C@@H]3C[C@H]2C(=O)Nc2cccc(Br)n2)c2ccc(Oc3ncc(C)cn3)cc12` [Compound 171, (1R,3S,5R)-2-(2-(3-Acetyl-5-((5-methylpyrimidin-2-yl)oxy)-1H-indazol-1-yl)acetyl)-N-(6-bromopyridin-2-yl)-2-azabicyclo[3.1.0]hexane-3-carboxamide], the IC50 was less than 1000 nM.
For `CC(=O)c1nn(CC(=O)N2C[C@H](F)C[C@H]2C(=O)Nc2nc(Br)ccc2C)c2ccc(Oc3ncc(C)cn3)cc12` [Compound 172, (2S,4R)-1-(2-(3-Acetyl-5-((5-methylpyrimidin-2-yl)oxy)-1H-indazol-1-yl)acetyl)-N-(6-bromo-3-methylpyridin-2-yl)-4-fluoropyrrolidine-2-carboxamide], the IC50 is less than 1000 nM.
For the compound `CC(=O)c1nn(CC(=O)N2[C@@H]3C[C@@H]3C[C@H]2C(=O)Nc2nc(Br)ccc2C)c2ccc(Oc3ncc(C)cn3)cc12` [Compound 173, (1R,3S,5R)-2-(2-(3-Acetyl-5-((5-methylpyrimidin-2-yl)oxy)-1H-indazol-1-yl)acetyl)-N-(6-bromo-3-methylpyridin-2-yl)-2-azabicyclo[3.1.0]hexane-3-carboxamide], the IC50 was less than 1000 nM.
Turning to `COc1cc(Br)nc(NC(=O)[C@@H]2C[C@@H](F)CN2C(=O)Cn2nc(C(C)=O)c3cc(Oc4ncc(C)cn4)ccc32)c1` [Compound 174, (2S,4R)-1-(2-(3-Acetyl-5-((5-methylpyrimidin-2-yl)oxy)-1H-indazol-1-yl)acetyl)-N-(6-bromo-4-methoxypyridin-2-yl)-4-fluoropyrrolidine-2-carboxamide], the IC50 is less than 1000 nM.
Take `CC(=O)c1nn(CC(=O)N2C[C@H](F)C[C@H]2C(=O)Nc2cccc(Br)n2)c2ccc(Oc3cnc(C)cn3)cc12` [Compound 175, (2S,4R)-1-(2-(3-Acetyl-5-((5-methylpyrazin-2-yl)oxy)-1H-indazol-1-yl)acetyl)-N-(6-bromopyridin-2-yl)-4-fluoropyrrolidine-2-carboxamide]: the IC50 was less than 1000 nM.
On to `CC(=O)c1nn(CC(=O)N2C[C@H](F)C[C@H]2C(=O)Nc2ccc(F)c(Br)n2)c2ccc(Oc3ncc(C)cn3)cc12` [Compound 176, (2S,4R)-1-(2-(3-Acetyl-5-((5-methylpyrimidin-2-yl)oxy)-1H-indazol-1-yl)acetyl)-N-(6-bromo-5-fluoropyridin-2-yl)-4-fluoropyrrolidine-2-carboxamide], for which the 50% inhibitory concentration (IC50) is less than 1000 nM.
Consider `CC(=O)c1nn(CC(=O)N2[C@@H]3C[C@@H]3C[C@H]2C(=O)Nc2ccc(F)c(Br)n2)c2ccc(Oc3ncc(C)cn3)cc12` [Compound 177, (1R,3S,5R)-2-(2-(3-Acetyl-5-((5-methylpyrimidin-2-yl)oxy)-1H-indazol-1-yl)acetyl)-N-(6-bromo-5-fluoropyridin-2-yl)-2-azabicyclo[3.1.0]hexane-3-carboxamide], for which the 50% inhibitory concentration (IC50) is less than 1000 nM.
For `CC(=O)c1nn(CC(=O)N2C[C@H](F)C[C@H]2C(=O)Nc2ccc(F)c(Br)n2)c2ccc(Oc3cnc(C)cn3)cc12` [Compound 178, (2S,4R)-1-(2-(3-Acetyl-5-((5-methylpyrazin-2-yl)oxy)-1H-indazol-1-yl)acetyl)-N-(6-bromo-5-fluoropyridin-2-yl)-4-fluoropyrrolidine-2-carboxamide], the IC50 was less than 1000 nM.
Next, `CC(=O)c1nn(CC(=O)N2C[C@H](F)C[C@H]2C(=O)Nc2nc(Br)ccc2C)c2ccc(Oc3cnc(C)cn3)cc12` [Compound 179, (2S,4R)-1-(2-(3-Acetyl-5-((5-methylpyrazin-2-yl)oxy)-1H-indazol-1-yl)acetyl)-N-(6-bromo-3-methylpyridin-2-yl)-4-fluoropyrrolidine-2-carboxamide]: less than 1000 nM; `CC(=O)c1nn(CC(=O)N2C[C@H](F)C[C@H]2C(=O)Nc2cccc(Br)n2)c2ccc(Oc3cc(C)ncn3)cc12` [Compound 180, (2S,4R)-1-(2-(3-Acetyl-5-((6-methylpyrimidin-4-yl)oxy)-1H-indazol-1-yl)acetyl)-N-(6-bromopyridin-2-yl)-4-fluoropyrrolidine-2-carboxamide]: less than 1000 nM; `CCOP(=O)(COc1ccc2c(c1)c(C(N)=O)cn2CC(=O)N1[C@@H]2CC[C@@H](C2)[C@H]1C(=O)Nc1cccc(C)n1)OCC` [Compound 182, diethyl (((3-Carbamoyl-1-(2-((1R,3S,4S)-3-((6-methylpyridin-2-yl)carbamoyl)-2-azabicyclo[2.2.1]heptan-2-yl)-2-oxoethyl)-1H-indol-5-yl)oxy)methyl)phosphonate]: more than 10000 nM.
Next, `Cc1cccc(NC(=O)[C@@H]2[C@H]3CC[C@H](C3)N2C(=O)Cn2cc(C(N)=O)c3cc(OCP(=O)(O)O)ccc32)n1` [Compound 183, (((3-carbamoyl-1-(2-((1R,3S,4S)-3-((6-methylpyridin-2-yl)carbamoyl)-2-azabicyclo[2.2.1]heptan-2-yl)-2-oxoethyl)-1H-indol-5-yl)oxy)methyl)phosphonic acid]: more than 10000 nM; `CC(=O)c1nn(CC(=O)N2C[C@H]3C[C@H]3[C@H]2C(=O)Nc2nc(Br)ccc2C2CC2)c2ccc(O[C@@H]3CO[C@H]4[C@@H]3OC[C@H]4O)cc12` [Compound 184, (1R,2S,5S)-3-(2-(3-Acetyl-5-((3R,3aR,6R,6aR)-6-hydroxyhexahydrofuro[3,2-b]furan-3-yloxy)-1H-indazol-1-yl)acetyl)-N-(6-bromo-3-cyclopropylpyridin-2-yl)-3-azabicyclo[3.1.0]hexane-2-carboxamide]: less than 1000 nM.
Turning to `CC(=O)c1nn(CC(=O)N2C[C@H]3C[C@H]3[C@H]2C(=O)Nc2nc(Br)ccc2C)c2ccc(O[C@@H]3CO[C@H]4[C@@H]3OC[C@H]4O)cc12` [Compound 185, (1R,2S,5S)-3-(2-(3-Acetyl-5-((3R,3aR,6R,6aR)-6-hydroxyhexahydrofuro[3,2-b]furan-3-yloxy)-1H-indazol-1-yl)acetyl)-N-(6-bromo-3-methylpyridin-2-yl)-3-azabicyclo[3.1.0]hexane-2-carboxamide], the IC50 was less than 1000 nM.
Regarding `Cc1cccc(NC(=O)[C@@H]2[C@H]3CC[C@H](C3)N2C(=O)Cn2cc(C(N)=O)c3cc(OCS(=O)(=O)NC(C)(C)C)ccc32)n1` [Compound 186, 5-((N-(tert-butyl)sulfamoyl)methoxy)-1-(2-((1R,3S,4S)-3-((6-methylpyridin-2-yl)carbamoyl)-2-azabicyclo[2.2.1]heptan-2-yl)-2-oxoethyl)-1H-indole-3-carboxamide], the IC50 is more than 10000 nM.
Consider `Cc1cccc(NC(=O)[C@@H]2[C@H]3CC[C@H](C3)N2C(=O)Cn2cc(C(N)=O)c3cc(OCS(N)(=O)=O)ccc32)n1` [Compound 187, 1-(2-((1R,3S,4S)-3-((6-Methylpyridin-2-yl)carbamoyl)-2-azabicyclo[2.2.1]heptan-2-yl)-2-oxoethyl)-5-(sulfamoylmethoxy)-1H-indole-3-carboxamide], for which the IC50 was more than 10000 nM.
In the case of `CC(=O)c1nn(CC(=O)N2C[C@H](F)C[C@H]2C(=O)Nc2cccc(Br)n2)c2ccc(OC3CCOC3)cc12` (stereo partly drawn) [Compound 193, (2S,4R)-1-(2-(3-acetyl-5-((tetrahydrofuran-3-yl)oxy)-1H-indazol-1-yl)acetyl)-N-(6-bromopyridin-2-yl)-4-fluoropyrrolidine-2-carboxamide], the concentration for half-maximal inhibition (IC50) is less than 1000 nM.
Regarding `CC(=O)c1nn(CC(=O)N2C[C@H](F)C[C@H]2C(=O)Nc2cccc(Br)n2)c2ccc(OC3CCCC3)cc12` [Compound 194, (2S,4R)-1-(2-(3-acetyl-5-(cyclopentyloxy)-1H-indazol-1-yl)acetyl)-N-(6-bromopyridin-2-yl)-4-fluoropyrrolidine-2-carboxamide], the IC50 was less than 1000 nM.
Under `CC(=O)c1nn(CC(=O)N2C[C@H](F)C[C@H]2C(=O)Nc2cccc(Br)n2)c2ccc(O[C@@H]3CO[C@H]4[C@@H]3OC[C@H]4O)cc12` [Compound 200, (2S,4R)-1-(2-(3-acetyl-5-(((3R,3aR,6R,6aR)-6-hydroxy-hexahydrofuro[3,2-b]furan-3-yl)oxy)-1H-indazol-1-yl)acetyl)-N-(6-bromopyridin-2-yl)-4-fluoropyrrolidine-2-carboxamide] stands less than 1000 nM; under `CC(=O)c1nn(CC(=O)N2C[C@H](F)C[C@H]2C(=O)Nc2cccc(Br)n2)c2cc(OCP(=O)(O)O)ccc12` [Compound 201, (((3-acetyl-1-(2-((2S,4R)-2-((6-bromopyridin-2-yl)carbamoyl)-4-fluoropyrrolidin-1-yl)-2-oxoethyl)-1H-indazol-6-yl)oxy)methyl)phosphonic acid], less than 1000 nM.
`CC(=O)c1nn(CC(=O)N2[C@H](C(=O)Nc3cccc(Br)n3)C[C@@]3(C)C[C@@H]23)c2cc(OCP(=O)(O)O)ccc12` [Compound 250, (((3-acetyl-1-(2-((1R,3S,5R)-3-((6-bromopyridin-2-yl)carbamoyl)-5-methyl-2-azabicyclo[3.1.0]hexan-2-yl)-2-oxoethyl)-1H-indazol-6-yl)oxy)methyl)phosphonic acid]: the IC50 is less than 1000 nM.
In the case of `CC(=O)c1cn(CC(=O)N2C[C@H](F)C[C@H]2C(=O)Nc2cccc(-c3ccccc3Cl)c2F)c2ccc(OCC[S+]([O-])CC(C)(CO)CO)cc12` (stereo partly drawn) [Compound 251, (2S,4R)-1-(2-(3-acetyl-5-(2-(3-hydroxy-2-(hydroxymethyl)-2-methyl-propylsulfinyl)ethoxy)-1H-indol-1-yl)acetyl)-N-(2′-chloro-2-fluorobiphenyl-3-yl)-4-fluoropyrrolidine-2-carboxamide], the IC50 is less than 1000 nM.

What is called IC50 is the concentration needed to halve the response being measured.

(Values after patent US10385097B2, “Ether compounds for treatment of medical disorders” (Achillion Pharmaceuticals, Inc., priority 2015, dated 2019).)
